Results: US20250019350A1, “SYNTHESIS OF THE PROSTATE SPECIFIC MEMBRANE ANTIGEN (PSMA) RADIOLABELED INHIBITOR [18F]DCFPYL” (Progenics Pharmaceuticals, Inc, priority 2023, published 2025)
Each block holds one molecule with its values, some of them ahead of it.

Experiments:
[1] = Retention/recovery of [19F]DCFPyL on the HLB solvent exchange cartridge as a function of pH (load, wash, product samples); assay type: physicochemical
Description: The goal of this study was to characterize the impact of pH on the retention of [^18F]DCFPyL on the HLB solvent exchange cartridge. […] The pH of one solution was adjusted to 2 and a second to 4 by adding 1N HCl. A third solution was used without adjusting its native pH of 7.2. Using a BD syringe, 10 mL of each solution was spiked with [^19F]DCFPyL (50 μg) by adding 0.5 mL of a 100 μg/mL stock solution. Each spiked solution was loaded onto a HLB cartridge at a rate of approximately 2 mL/min. […] The eluent from each HLB cartridge was individually collected and identified as the “wash solution.” Each HLB cartridge was then individually eluted with 1 mL of ethanol, the samples collected and are identified as the “product sample.” The load solution and wash solution samples were analyzed using a drug product chemical impurity assay after a 1 to 10 mL dilution with saline, while the ethanolic product samples were analyzed following a 0.5 to 10 dilution with saline.
The goal of this study was to characterize the impact of pH on the retention of ^18F-DCFPyL on the HLB solvent exchange cartridge. […] The pH of one solution was adjusted to 2 and a second to 4 by adding 1N HCl. A third solution was used without adjusting its native pH of 7.2. At this pH the solution will be mainly sodium ascorbate. Using a BD syringe, 10 mL of each solution was spiked with ^19F-DCFPyL (50 μg) by adding 0.5 mL of a 100 μg/mL stock solution. Each spiked solution was loaded onto an HLB cartridge at a rate of approximately 2 mL/min and the solution collected after the HLB column is identified as the load solution. […] Each HLB cartridge was then individually eluted with 1 mL of ethanol, the solution collected after the HLB column is identified as the product sample. The load solution and wash solution samples were analyzed using the drug product chemical impurity assay after a 1 to 10 mL dilution with saline, while the ethanolic product samples were analyzed following a 0.5 to 10 mL dilution with saline.

[2] = @ 10 hr; ascorbic acid at 10 mg/mL (Fawdry 2007); cited from earlier work
[3] = HPLC/UV (264 nm) chemical impurity assay; ascorbic acid related impurity; assay type: physicochemical; conditions: 5 mg/mL, pH 6 ascorbic acid solution with free 18F (129 mCi/mL)
Description: Analytical HPLC method was used. The method employs UV detection at 264 nm for chemical impurities, and an Eckert & Ziegler model B-FC-1000 gamma detector for radiochemical assays.
Since the peak has not been previously observed in preparations in the absence of ascorbic acid it is likely ascorbic acid related and was further investigated. A decayed sample from the lot produced was analyzed further and confirmed the presence of the peak, FIG. 35. […] The sample was assayed for chemical impurities at T=0, 4, 10 and 24 hours when held inverted at ambient conditions. […] The impurity only formed with radioactivity exposure but not when stored in light or dark at ambient conditions (see FIG. 37).

[4] = cited from earlier work
[5] = HLB pH 2 Product, first Ethanol elution
[6] = HLB pH 2 Product, second Ethanol elution
[7] = HLB pH 2 Product, third Ethanol elution

retention by the HLB cartridge ([1]; 10 mg/mL ascorbic acid, pH 7.2): not meaningfully retained | 19F-DCFPyL recovered (%) ([1]; HLB Saline pH 7 Rinse): 0.0% | μg of 19F-DCFPyL recovered ([1]; HLB Saline pH 7 Rinse): Not Detected | 19F-DCFPyL recovered (%) ([1]; HLB pH 2 Load): 0.0% | μg of 19F-DCFPyL recovered ([1]; HLB pH 2 Load): Not Detected | 19F-DCFPyL recovered (%) [1, 5]: 69.5% | μg of 19F-DCFPyL recovered [1, 5]: 35.423 µg | 19F-DCFPyL recovered (%) [1, 6]: 21.5% | μg of 19F-DCFPyL recovered [1, 6]: 10.946 µg | 19F-DCFPyL recovered (%) [1, 7]: 7.1% | μg of 19F-DCFPyL recovered [1, 7]: 3.629 µg | 19F-DCFPyL recovered (%) ([1]; HLB pH 2 Rinse): 0.0% | μg of 19F-DCFPyL recovered ([1]; HLB pH 2 Rinse): Not Detected | 19F-DCFPyL recovered (%) ([1]; HLB pH 4 Load): 22.0% | μg of 19F-DCFPyL recovered ([1]; HLB pH 4 Load): 10.504 µg | 19F-DCFPyL recovered (%) ([1]; HLB pH 4 Product): 57.7% | μg of 19F-DCFPyL recovered ([1]; HLB pH 4 Product): 27.989 µg | 19F-DCFPyL recovered (%) ([1]; HLB pH 4 Rinse): 0.0% | μg of 19F-DCFPyL recovered ([1]; HLB pH 4 Rinse): Not Detected | 19F-DCFPyL recovered (%) ([1]; HLB pH 7 Load): 87.4% | μg of 19F-DCFPyL recovered ([1]; HLB pH 7 Load): 38.239 µg | 19F-DCFPyL recovered (%) ([1]; HLB pH 7 Product): 0.0% | μg of 19F-DCFPyL recovered ([1]; HLB pH 7 Product): Not Detected | 19F-DCFPyL in the load or wash samples ([1]; pH 2): not detected | μg of 19F-DCFPyL recovered ([1]; pH 2 Control): 50.976 µg | 19F-DCFPyL in the product sample, % of the total amount recovered from all samples ([1]; pH 4): approximately 68% | 19F-DCFPyL recovered in the load sample ([1]; pH 4): approximately 31% | 19F-DCFPyL recovered in the load sample (mass) ([1]; pH 4): < 1 µg | μg of 19F-DCFPyL recovered ([1]; pH 4 Control): 47.665 µg | μg of 19F-DCFPyL recovered ([1]; pH 7 Control): 43.759 µg | 19F-DCFPyL recovered in the wash samples ([1]; pH 7.2): 3.8 µg/mL
Structure (SMILES): O=C(O)CC[C@H](NC(=O)N[C@@H](CCCCNC(=O)c1ccc(F)nc1)C(=O)O)C(=O)O [Lot 19F-DCFPyL]

Structure (SMILES): OC[C@H]1O[C@@H](O)[C@H]([18F])[C@@H](O)[C@@H]1O [FDG]
de-fluorination [2]: less than 2%

4.6 min RT peak (HPLC UV) ([3]; T = 0 hours, ambient): not present | 4.6 min RT peak (HPLC UV), approximate concentration ([3]; T = 24 hours, relative response factor of 1 to [19F]-DCFPyL standard): ~1.75 µg/mL
Structure (SMILES): O=C1O[C@H]([C@@H](O)CO)C(O)=C1O [ascorbic acid]
pKa [4]: about 4.2
